From patent US20230323369A1, “SCREENING MODEL AND METHOD FOR HBV CCCDNA-TARGETING DRUG” (priority 2020, published 2023)
Where a name gives a salt, the structure may show the parent alone.

Key:
RG-Hibit16 cells = assay: CCK8 cytotoxicity in RG-Hibit16 cells; conditions: 1 µM, 4 days
Experimental: (§1) In this example, the reporter model of Example 1 (HepaRG-Hibit16 integrated with Hibit16 constructed based on HepaRG cells) and the reporter model of Example 2 (HepG2-Rccc1a integrated with Rccc1a constructed based on HepG2) were investigated for screening cccDNA inhibitors. These two cells were used to evaluate the potential of 189 drugs to inhibit cccDNA, including clinical drugs for different diseases or drugs in the clinical research stage. The screening work was carried out in a 96-well cell culture plate, RG-Hibit16 cells were plated at a cell density of 15,000/well, and G2-Rcccla cells were plated at a cell density of 35,000/well. RG-Hibit16 cells were treated with drugs 1 week after plating. For RG-Hibit16, different compounds were added for treatment when Dox was added to induce virus expression; the next day after G2-Rccc1a cells were plated, they were firstly infected with adenovirus Adv-Cre to express Cre recombinase protein, and different compounds were added 2 days later for treatment, and all compounds were diluted to 1 µM at the final concentration, 200 µL per well; new medium was replaced every 2 days, the expression of HiBiT in the cell supernatant was detected after 4 days of compound treatment, and CCK8 detection reagent was added at a ratio of 10:1 to detect the cytotoxicity of the compounds.

G2-Rccc1a cells = assay: CCK8 cytotoxicity in G2-Rccc1a cells; conditions: 1 µM, 4 days
Experimental: as §1

HBV cccDNA [1] = assay: Compound screening in RG-Hibit16 reporter cells (HiBiT in supernatant); assay type: cell-based, hepatitis B virus; conditions: 1 µM, 4 days of compound treatment, among 189 compounds
Experimental: (§2) Detection of HiBiT: Nano Glo HiBiT Extracellular Detection System (Cat. No. N2421) of Promega Corporation was used for HiBiT detection, and the detection steps were carried out according to the kit instructions.
(§3) The reporter model prepared in Example 1 comprised an HBV variant integrated with 3 repeats of HiBiT sequence. The mRNA transcribed directly from the HBV variant as a template lacked the initiation codon for HiBiT expression, and could not translate the protein attached to the HiBiT tag. Only after the pgRNA transcribed from the HBV variant was reversely transcribed to form cccDNA, the mRNA transcribed from cccDNA as a template could translate the protein attached to the HiBiT tag, so the expression level of HiBiT could be used to indicate the formation of HBV cccDNA. In the reporter model prepared in Example 2, the HiBiT sequence was inserted in the middle of the HBV core sequence, the N-terminus sequence and C-terminus sequence of the core were respectively attached to the C-terminus and N-terminus of the HBV replicon, and loxP sequences were ligated to both ends of the HBV replicon, so that in the absence of Cre recombinase expression, the HiBiT tag lacked a promoter and could not be expressed; but with the expression of Cre recombinase, it could mediate the recombination of double-stranded DNA, so that the linear HBV genome DNA formed a closed circular DNA, and after the circular DNA was formed, the HiBiT tag could use the endogenous promoter of HBV to initiate the expression of the protein attached to the HiBiT tag, so the signal of the HiBiT tag could be used to indicate the formation of recombinant HBV cccDNA, i.e., HBV rcccDNA.

HBV = assay: HepG2-hNTCP-2B1 HBV infection model; assay type: cell-based, hepatitis B virus; conditions: for effect on intracellular cccDNA: HepG2-hNTCP-2B1, after 8 days of infection
Text: Detection of HBsAg/HBeAg: The detection procedures of hepatitis B surface antigen (chemiluminescence method CLEIA, product standard number: YZB/Guo 0346-2014) and e antigen (enzyme-linked immunosorbent assay ELISA, product standard number: YZB/Guo 0216-2013) were both carried out according to the detection methods of the kits of Beijing Wantai Company.
(§4) Detection of HBV cccDNA: The modified Hirt method was used for HBV cccDNA extraction, with Tiangen Plasmid Mini Kit. The lysis buffers involved were Buffer I (50 mM Tris, 10 mM EDTA, pH 7.5), Buffer II (1.2 % SDS), Buffer III (3 M CsCl, 1 M potassium acetate, 0.67 M acetic acid), which were used to replace P1, P2 and P3 in the Tiangen Plasmid Mini Kit respectively. The extraction steps and methods were performed by referring to the plasmid extraction method of the kit. The instrument used is Roche’s LightCycler® 96. HBV cccDNA and mitochondrial DNA (mtDNA) were quantified respectively, and the relative values of HBV cccDNA and mtDNA were calculated.
We further verified the functions of these 6 compounds in the HepG2-hNTCP-2B1 infection model. HepG2-hNTCP-2B1 was the single clone 2B1 selected for the highest susceptibility to HBV which is made by overexpressing hNTCP in HepG2 cells. In the evaluation by this model, the cells were firstly infected with HBV virus, washed with PBS to remove the residual virus on the next day, different compounds were added after 2 days, and then the cell supernatant was collected and fresh medium was replaced every 2 days, the viral antigen in the cell supernatant was detected, the cells were lysed after 8 days of infection, the intracellular HBV cccDNA was detected, and the evaluation results were shown in FIG. 7. […] The functions of these five compounds were verified in the HepG2-hNTCP-2B1 infection model, and the evaluation strategy was the same as that of the aforementioned inhibitor.

HBV rcccDNA = assay: Compound screening in G2-Rccc1a reporter cells (HiBiT in supernatant, Adv-Cre); assay type: cell-based, hepatitis B virus; conditions: 1 µM, 4 days of compound treatment, among 189 compounds
Experimental: as §2, §3

HBV cccDNA [2] = assay: HepaRG-Hibit16 reporter cells, evaluation of HBV inhibitors (Doxycycline induction); assay type: cell-based, hepatitis B virus; conditions: for formation of cccDNA: Doxycycline-induced, cell lysate
Experimental: as §2, §4
HepaRG-Hibit16 cells were obtained by transfecting HepaRG cells with Hibit16 plasmid and PiggyBac transposase, integrating the HBV variant sequence (Hibit16) and selection markers into the genome of the cells, and screened by puromycin resistance and red fluorescent marker; Doxycycline could activate TRE3G promoter to initiate the expression of iRFP670, as well as the transcription and replication of HBV, thereby generating HiBiT, as shown in FIG. 4A. To evaluate the function of HBV inhibitors in the cells, the cells were first plated, and Doxycycline was added to induce viral transcription and replication while different HBV inhibitors were added for intervention. The cell supernatant was collected every 2 days, the medium was replaced, and the HiBiT signal, HBsAg, HBeAg in the cell supernatant, and the HBV DNA and HBV cccDNA in the cell lysate were detected, and the responses of the cells to HBV inhibitors were shown in FIGS. 4B-F. Tenofovir (tenofovir disoproxil fumarate, TDF) is a nucleotide reverse transcriptase inhibitor, and Morphothiadin (abbreviation: Mor) is an assembly regulator of core particles, which are already in the clinical Phase II/III evaluation stage, and both can inhibit the formation of cccDNA.

[3] = HepG2-hNTCP-2B1, cell supernatant

Compound	cytotoxicity (CCK8) (RG-Hibit16 cells)	cytotoxicity (CCK8) (G2-Rccc1a cells)	expression level of HiBiT (surrogate for HBV cccDNA) (HBV cccDNA [1])	effect on intracellular cccDNA (HBV)	effect on HBeAg (HBV; [3])	expression level of HiBiT (surrogate for HBV rcccDNA) (HBV rcccDNA)	also measured
CCCCCCCCCCCCCCCC[n+]1ccccc1 [Cetylpyridinium]	no obvious cytotoxicity	no obvious cytotoxicity	–	–	–	–	–
O=C(O)c1cc(-c2ccccc2)nc2ccccc12 [Cinchophen]	–	–	up-regulated effects	up-regulate	weak promotion effect	up-regulated effects	–
Nc1nc(Cl)nc2c1ncn2[C@H]1C[C@H](O)[C@@H](CO)O1 [Cladribine]	–	–	up-regulated effects	up-regulate	weak promotion effect	up-regulated effects	expression level of HBsAg (HBV; [3]): significantly up-regulate
C[C@@H](Oc1cc(-c2cnn(C3CCNCC3)c2)cnc1N)c1c(Cl)ccc(F)c1Cl [Crizotinib]	no obvious cytotoxicity	no obvious cytotoxicity	–	–	–	most significantly inhibited	–
O=C1c2c(O)cccc2Cc2cccc(O)c21 [Dithranol]	no obvious cytotoxicity	no obvious cytotoxicity	–	–	–	–	–
C[C@H]1O[C@@H](n2cc(F)c(=O)[nH]c2=O)[C@H](O)[C@@H]1O [Doxifluridine]	no obvious cytotoxicity	no obvious cytotoxicity	–	significant inhibitory effect	–	most significantly inhibited	–
N=C(N)NC(=O)Cc1c(Cl)cccc1Cl [Guanfacine]	no obvious cytotoxicity	no obvious cytotoxicity	most significantly inhibited	–	–	–	–
CN1CCc2c(c3ccccc3n2Cc2ccccc2)C1 [Mebhydrolin]	–	–	up-regulated effects	up-regulate	weak promotion effect	up-regulated effects	–
CCOC(=O)C1=C(CN2CCOCC2)NC(c2nccs2)=NC1c1ccc(F)cc1Br (stereo not drawn) [Mor, Morphothiadin]	–	–	–	–	–	–	formation of cccDNA (HBV cccDNA [2]): could inhibit the formation of cccDNA; expression level of HiBiT vs control group (HBV cccDNA [2]; cell supernatant): significantly lower than that in the control group
COc1ccccc1N1CCN(CC(O)COc2cccc3ccccc23)CC1 (stereo not drawn) [Naftopidil]	–	–	up-regulated effects	–	weak promotion effect	up-regulated effects	–
CC1(C)CCC(C)(C)c2cc(Cn3cccn3)c(/C=C/c3ccc(C(=O)O)cc3)cc21 [Palovarotene]	no obvious cytotoxicity	no obvious cytotoxicity	most significantly inhibited	–	–	most significantly inhibited	inhibition rate against HBsAg (HBV; [3]): more than 60%; inhibitory effect on HBsAg (HBV; [3]): relatively poor; inhibition rate against HBV cccDNA (HBV; HepG2-hNTCP-2B1, intracellular, after 8 days of infection): more than 60%
CC(C)OC(=O)OCOP(=O)(CO[C@H](C)Cn1cnc2c(N)ncnc21)OCOC(=O)OC(C)C [TDF, tenofovir disoproxil fumarate]	–	–	–	–	–	–	formation of cccDNA (HBV cccDNA [2]): could inhibit the formation of cccDNA
CC[C@]1(O)C[C@H]2CN(CCc3c([nH]c4ccccc34)[C@@](C(=O)OC)(c3cc4c(cc3OC)N(C=O)[C@H]3[C@@](O)(C(=O)OC)[C@H](OC(C)=O)[C@]5(CC)C=CCN6CC[C@]43[C@@H]65)C2)C1 [Vincristine]	–	–	up-regulated effects	up-regulate	weak promotion effect	up-regulated effects	expression level of HBsAg (HBV; [3]): significantly up-regulate
